Values quoted from earlier work, collected in patent US20220331292A1, “COMPOSITIONS AND METHODS FOR DELIVERY OF PSILOCIN AND PRODRUGS THEREOF” (priority 2021, published 2022).

Legend:
[1] = molecular target: 5-HT2a serotonin receptor (Homo sapiens, UniProt P28223)
[2] = not given; remark: listed apart in the source
[3] = psilocin after escalating doses of psilocybin

5-HT2a serotonin receptor, sequence (P28223 whole entry): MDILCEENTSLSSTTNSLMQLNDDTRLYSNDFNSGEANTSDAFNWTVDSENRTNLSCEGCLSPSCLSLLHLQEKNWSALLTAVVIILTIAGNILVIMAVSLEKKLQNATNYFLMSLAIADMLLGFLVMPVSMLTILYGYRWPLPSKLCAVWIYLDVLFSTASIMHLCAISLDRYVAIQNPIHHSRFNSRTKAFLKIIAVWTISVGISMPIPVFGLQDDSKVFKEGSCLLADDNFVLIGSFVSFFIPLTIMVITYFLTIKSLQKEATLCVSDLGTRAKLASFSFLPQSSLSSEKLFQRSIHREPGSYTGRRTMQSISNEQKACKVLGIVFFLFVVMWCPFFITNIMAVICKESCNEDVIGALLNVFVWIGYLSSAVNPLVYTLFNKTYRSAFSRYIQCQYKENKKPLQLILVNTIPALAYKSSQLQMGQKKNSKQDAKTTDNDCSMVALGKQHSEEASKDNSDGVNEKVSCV

CN(C)CCc1c[nH]c2cccc(O)c12 [Psilocin, psilocin]
binding affinity with 5-HT2a [1]: high binding affinity
half-life [3]: three
pharmacokinetics (linearity) [3]: linear

CN(C)CCc1c[nH]c2cccc(OP(=O)(O)O)c12 [Psilocybin, psilocybin]
serious physical or psychological events (oral 0.3, 0.45 and 0.6 mg/kg at monthly intervals, during or within 30 days of any dose): no serious physical or psychological events
share of metabolized psilocybin excreted in the urine as psilocin-O-glucuronide [2]: About 80%
